# Experimental data: ChEMBL document CHEMBL1127943, “Morpholine-based substance P antagonists: assessment of the 3-point binding model” (Bioorg Med Chem Lett, 1994)
# pIC50: −log10 of the molar value.
# Molecular target: Substance-P receptor (Homo sapiens, UniProt P25103)
# Assay: Binding affinity towards human Tachykinin receptor 1 by the displacement of [125I]- Substance P in CHO Cells
# Sequence of Substance-P receptor (P25103 whole entry): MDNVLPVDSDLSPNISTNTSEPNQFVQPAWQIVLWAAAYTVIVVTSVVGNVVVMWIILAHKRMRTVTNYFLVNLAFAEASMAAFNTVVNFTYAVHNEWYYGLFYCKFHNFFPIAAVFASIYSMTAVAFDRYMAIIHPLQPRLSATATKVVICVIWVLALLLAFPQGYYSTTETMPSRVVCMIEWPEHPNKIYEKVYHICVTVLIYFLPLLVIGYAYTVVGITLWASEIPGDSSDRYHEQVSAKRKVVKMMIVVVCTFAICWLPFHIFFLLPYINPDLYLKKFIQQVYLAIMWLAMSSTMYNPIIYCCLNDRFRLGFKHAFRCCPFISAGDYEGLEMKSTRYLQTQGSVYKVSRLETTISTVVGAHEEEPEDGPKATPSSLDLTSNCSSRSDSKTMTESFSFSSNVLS
row,pIC50,SMILES
1,5.82,FC(F)(F)c1cc(CC[C@@H]2OCCN[C@@H]2c2ccccc2)cc(C(F)(F)F)c1
2,5.60,O=C1CO[C@@H](/C=C/c2cc(C(F)(F)F)cc(C(F)(F)F)c2)[C@@H](c2ccccc2)N1
3,7.06,FC(F)(F)c1cc(C2OC2[C@@H]2OCCN[C@@H]2c2ccccc2)cc(C(F)(F)F)c1 (some centres undefined)
4,5.95,FC(F)(F)c1cc(CC[C@H]2OCCN[C@@H]2c2ccccc2)cc(C(F)(F)F)c1
